From patent publication US20240317689A1, “POTASSIUM CHANNEL MODULATOR, COMPOSITION AND APPLICATION” (NEUSHEN THERAPEUTICS (SHANGHAI) CO., LTD, priority 2021, published 2024) come the findings set out here.

The structures appear in SMILES notation. Where only a bound is given, the exact number is not on record here.

Data set [1] deals with MES-induced epilepsy in mice. Nature of the data set: MES mouse epilepsy model. The data set is classed as in vivo. Conditions: 5 mpk, electrical stimulation 30 minutes after administration. The method, then:
Example 67: MES Mouse Epilepsy Model
• 1. The mice (10 mice per group) were transferred to the operating room to adapt to the environment 30 minutes before the experiment. • 2. The mice were administered the test compounds or positive drug (Valproate) at a specific time point. 30 minutes after the administration of Valproate or 30 minutes after the administration of the test compounds, electrical stimulation was given with ear electrodes. The stimulation parameters were a square wave with a total duration of 0.8 seconds, a frequency of 50 Hz, and an amplitude of 50 mA with an interval of 10 msec. • 3. The number and duration of hind limb tonic extension of the animal within 1 minute after the completion of the electrical stimulation was recorded, and the possible death and time of death were also recorded. • 4. After administration, the possible side effects induced by the drug were observed and recorded, and the side effects are divided into four levels: • None: Normal • Mild sedation • Moderate sedation • Severe sedation

Data set [2] concerns the target T1, KCNQ2/3 potassium ion channel (Homo sapiens, UniProt O43525+O43526).
T1 construct: expressed in transfected cells; host or cells: CHO cells (hKCNQ-CHO)
Nature of the data set: KCNQ2/3 potassium ion channel activation assay (whole-cell patch clamp, hKCNQ-CHO cells). It is filed as cell-based. The following applies: for activation at 0.05 µM: test concentration 0.05 μM; for activation at 0.05 µM / activation at 3 µM: read-out: Enhancment % (current enhancement multiple). Here is the method:
Example 64: KCNQ2/3 Potassium Ion Channel Activation Assay
(§1) hKCNQ-CHO cells were cultured at 37° C. in a humidified environment of 5% CO2.
• 2.1. Extracellular fluid (mM): NaCl 145, KCl 4, CaCl2 2, MgCl2 1, Glucose 10, HEPES 10. The pH value of the extracellular fluid was adjusted to 7.4 with NaOH, and the osmotic pressure was adjusted to about 295 mOsm. • 2.2. Intracellular fluid (mM (mmol/L)): KOH 31.25, KCl 120, EGTA 10, MgCl2 1.75, CaCl2 5.374, HEPES 10, Na-ATP 4. The pH value of the intracellular fluid was adjusted to 7.4 with HCl, and the osmotic pressure was adjusted to about 285 mOsm. • 2.3. The extracellular fluid should be prepared once a week, and the intracellular fluid should be stored at −20° C. after preparation.
(§2) The model positive reference compound Retigabine (RTG) was dissolved with 100% DMSO and configured as a 10 mM working solution. The test compounds were dissolved with 100% DMSO and configured as a 10 mM working solution. The final concentration of DMSO in the test solution should be less than 0.3%.
(§3) Whole-cell patch clamp was performed at room temperature. The electrical signals recorded with the EPC 10 USB amplifier (HEKA Elektronik, Germany) were filtered by a 3 kHz low-pass filter, and finally recorded in PatchMaster 2×90.5 software (HEKA Elektronik, Germany). At this step, the quality control standard was that the cell high-resistance sealing was greater than 500 MOhms, and the detection current was greater than 0.4 nA.
(§4) The recording electrodes were pulled out and polished with a vertical puller (NARISHIGE PC-10, Japan) using a borosilicate glass capillary (GC150tF-10, Harvard Apparatus Co., UK). At this step, the quality control standard was that the electrode resistance was between 2 MΩ and 5 MΩ.
(§5) During the recording process of the whole-cell patch clamp, a continuous perfusion system (BT100-2J, LongerPump, China) was used to continuously perfuse the extracellular fluid. The perfusion system was installed on the stage of an upright microscope (FN-S2N, Nikon, Japan), and the perfusion head was manually positioned under the microscope.
The voltage command for detecting the amplitude of hKCNQ current was as follows: the cell stepped from the clamping potential of −80 mV to −30 mV, and held for 1500 ms; and then the clamping voltage was lowered to −120 my and held for 500 ms; finally, the voltage returned to the clamping potential of −80 mV. The detection voltage command was repeated every 15,000 milliseconds, and the command was continuously executed during the compound test. The quality control standard for compound action stability was the current amplitude under 5 consecutive voltage commands, and the coefficient of variation of the current amplitude was <5%.
Data analysis was performed using PatchMaster 2×90.5 software (HEKA Elektronik, Germany) and Excel 2013 (Microsoft, USA) software. For each cell's patch clamp recording, the amplitude of the hKCNQ channel current (Itest) corresponding to the test compound concentration should be obtained. The enhanced channel current was obtained by subtracting the cell's original channel current (Icontrol) from Itest and dividing by Icontrol to obtain the current enhancement multiple. That is, the current enhancement multiple (Enhancment %)=(Itest −Icontrol)/Icontrol[…].

Data set [3] can be described thus: Blood-brain barrier permeability assay in mice (brain concentration after intragastric administration). It is filed as in vivo. Conditions: 5 mg/kg, brain tissue homogenate. Here is the method:
Administration Dosage of 5 mg/kg
The drug was prepared in proportion (solvent: 5% DMSO+5% Solutol+90% normal saline) to make a solution with a concentration of 0.5 mg/mL, and the mice were subjected to intragastric administration at 0.1 mL/10 g, with 3 mice per group in parallel.
After the mice were administered, the mice were anesthetized and perfused with normal saline through the heart, dissected to collect the brain tissue. The brain tissue was washed with normal saline, dried, weighed, and transferred to a 2 mL EP tube, added with normal saline according to brain tissue: normal saline=1:1 (g/mL). 3 steel balls were put in each tube on a tissue grinder, and the tissue mixture was homogenized at 60 HZ for 60 s, centrifuged at 15000 rpm at 4° C. for 10 minutes, and the supernatant was taken, which was the brain tissue homogenate.
The drug stock solution (0.5 mg/mL) was taken and diluted with acetonitrile to form standard curve working solutions with concentrations of 50, 100, 200, 500, 1000, 2000, 5000, 10000, and 20000 ng/mL, and quality control working solutions with concentrations of 100, 2000, and 10000 ng/mL. 47.5 μL of blank matrix was taken respectively, and 2.5 μL of standard curve working solution and 2.5 μL of quality control working solution were added thereto to prepare standard curve samples with concentrations of 2.5, 5, 10, 25, 50, 100, 250, 500, and 1000 ng/mL and quality control samples with concentrations of 5, 100, and 500 ng/mL. 200 μL of acetonitrile (containing the internal standard of 5 ng/mL of Loratadine) was added thereto respectively, subjected to vortex oscillation for 3 minutes, centrifuged at 15,000 rpm and 4° C. for 10 minutes, and the supernatant was taken and analyzed by LC-MS/MS to obtain a standard curve.
50 μL of brain tissue homogenate sample was taken, added with 200 μL of acetonitrile (containing the internal standard of 5 ng/mL of Loratadine), subjected to vortex oscillation for 3 minutes, centrifuged at 15,000 rpm and 4° C. for 10 minutes, and the supernatant was taken for LC-MS/MS analysis. The standard curve was combined with the analysis to obtain the corresponding concentrations in the brain.

Another data set addresses T2, KCNQ2/3 (Homo sapiens, UniProt O43525+O43526).
T2 construct: expressed in transfected cells; host or cells: CHO cells (hKCNQ-CHO)
Nature of the data set: Half-maximal activation voltage left shift assay (whole-cell patch clamp, hKCNQ-CHO cells). The data set is classed as cell-based. The method, then:
Example 65: Half-Maximal Activation Voltage Left Shift Assay
as §1
• a) Extracellular fluid (mM): NaCl 145, KCl 4, CaCl2 2, MgCl2 1, Glucose 10, HEPES 10. The pH value of the extracellular fluid was adjusted to 7.4 with NaOH, and the osmotic pressure was adjusted to about 295 mOsm. • b) Intracellular fluid (mM): KOH 31.25, KCl 120, EGTA 10, MgCl2 1.75, CaCl2 5.374, HEPES 10, Na-ATP 4. The pH value of the intracellular fluid was adjusted to 7.4 with HCl, and the osmotic pressure was adjusted to about 285 mOsm. • c) The extracellular fluid should be prepared once a week, and the intracellular fluid should be aliquoted and stored at −20° C. after preparation.
as §2, §3, §4, §5
The voltage command for detecting the amplitude of hKCNQ current was as follows: the cell was clamped from a potential of −80 mV, stepped to −120 mV, and then clamped continuously at increasing voltages of 10 mV per sweep until +60 mV, held for 1500 ms; and then the clamping voltage was lowered to −120 my and held for 500 ms; finally, the voltage returned to the clamping potential of −80 mV. The detection voltage command was repeated every 15,000 milliseconds, and the command was continuously executed during the compound test. The half-maximal voltage of the cell's hKCNQ was obtained by nonlinear fitting of the current amplitude at different clamping potentials (−120 mV to +60 mV).
Data analysis was performed using PatchMaster 2×90.5 software (HEKA Elektronik, Germany) and Excel 2013 (Microsoft, USA) software. For each cell's patch clamp recording, the half-maximal voltage (V½-test) of hKCNQ corresponding to the test compound concentration should be obtained. The left-shifted half-maximal voltage value ΔV½ (V1/2 Shift (mV)) was obtained by subtracting the half-maximal voltage of hKCNQ before compound action (V½-control) from V½-test.
(In patch-clamp work, channel activity is measured electrically.)

Turning to `Cc1cc(N2CCCc3cc(OC(C)C)ccc3C2)cc(C)c1NC(=O)CC(C)(C)C` [Compound 003, N-(4-(7-isopropoxy-1,3,4,5-tetrahydro-2H-benzo[c]azepin-2-yl)-2,6-dimethylphenyl)-3,3-dimethylbutanamide], the “Protection rate for tonic extension” value in data set [1] is reported as 100%. In data set [2], the activation at 0.05 µM was < 50%. For the same compound, the activation at 3 µM in data set [2] (test concentration 3 μM) was in the range of 50 to 100%. Besides, the “Concentrations in the brain” value in data set [3] is 127.5 ng/g. In addition, the entries for the “V1/2 Shift (mV)” value on KCNQ2/3 (test concentration 50 nM) and on KCNQ2/3 (test concentration 300 nM) were −7.00 mV and −36.06 mV, respectively.

As to `CCC(C)Oc1ccc2c(c1)CCCN(c1cc(C)c(NC(=O)CC(C)(C)C)c(C)c1)C2` (stereo not drawn) [Compound 004, N-(4-(7-(sec-butoxy)-1,3,4,5-tetrahydro-2H-benzo[c]azepin-2-yl)-2,6-dimethylphenyl)-3,3-dimethylbutanamide], the activation at 0.05 µM in data set [2] is < 50%. Also, in data set [2] (test concentration 3 μM), the activation at 3 µM was > 100%. The “V1/2 Shift (mV)” value at KCNQ2/3 (test concentration 50 nM) was −11.76 mV; on KCNQ2/3 (test concentration 300 nM), −23.56 mV.

On to `Cc1cc(N2CCCc3cc(OC4CCCC4)ccc3C2)cc(C)c1NC(=O)CC(C)(C)C` [Compound 011, N-(4-(7-(cyclopentyloxy)-1,3,4,5-tetrahydro-2H-benzo[c]azepin-2-yl)-2,6-dimethylphenyl)-3,3-dimethylbutanamide], for which the “Protection rate for tonic extension” value in data set [1] was 90%. For the same compound, the activation at 0.05 µM in data set [2] is > 100%. In data set [2] (test concentration 3 μM), the activation at 3 µM was > 100%. The results for the “V1/2 Shift (mV)” value at KCNQ2/3 (test concentration 50 nM) and on KCNQ2/3 (test concentration 300 nM) were −2.92 mV and −21.98 mV, respectively.

For `Cc1cc(N2CCCc3cc(O[C@H](C)C(F)(F)F)ccc3C2)cc(C)c1NC(=O)CC(C)(C)C` [Compound 032, (R)—N-(2,6-dimethyl-4-(7-((1,1,1-trifluoropropan-2-yl)oxy)-1,3,4,5-tetrahydro-2H-benzo[c]azepin-2-yl)phenyl)-3,3-dimethylbutanamide], the “Protection rate for tonic extension” value in data set [1] stood at 100%. In data set [2], the activation at 0.05 µM was in the range of 50 to 100%. Besides, in data set [2] (test concentration 3 μM), the activation at 3 µM was > 100%. Also, the “V1/2 Shift (mV)” value at KCNQ2/3 (test concentration 50 nM) is −17.59 mV.

For `Cc1cc(N2CCCc3cc(O[C@@H](C)C(F)(F)F)ccc3C2)cc(C)c1NC(=O)CC(C)(C)C` [Compound 033, (S)—N-(2,6-dimethyl-4-(7-((1,1,1-trifluoropropan-2-yl)oxy)-1,3,4,5-tetrahydro-2H-benzo[c]azepin-2-yl)phenyl)-3,3-dimethylbutanamide], the “Protection rate for tonic extension” value in data set [1] was determined as 100%. Also, in data set [2] (test concentration 3 μM), the activation at 3 µM lay in the range of 50 to 100%. Further, on KCNQ2/3 (test concentration 50 nM), the “V1/2 Shift (mV)” value is −44.25 mV.

For the compound `Cc1cc(N2CCCc3cc(OCCCC(F)(F)F)ccc3C2)cc(C)c1NC(=O)CC(C)(C)C` [Compound 060, N-(2,6-dimethyl-4-(7-(4,4,4-trifluorobutoxy)-1,3,4,5-tetrahydro-2H-benzo[c]azepin-2-yl)phenyl)-3,3-dimethylbutanamide], the activation at 3 µM in data set [2] (test concentration 3 μM) was > 100%.

For the compound `Cc1cc(N2CCCc3cc(OCCCC(F)(F)C(F)(F)F)ccc3C2)cc(C)c1NC(=O)CC(C)(C)C` [Compound 061, N-(2,6-dimethyl-4-(7-((4,4,5,5,5-pentafluoropentyl)oxy)-1,3,4,5-tetrahydro-2H-benzo[c]azepin-2-yl)phenyl)-3,3-dimethylbutanamide], the activation at 3 µM in data set [2] (test concentration 3 μM) was > 100%.

Turning to `Cc1cc(N2CCCc3cc(OCC(F)(F)CC(F)(F)F)ccc3C2)cc(C)c1NC(=O)CC(C)(C)C` [Compound 062, N-(2,6-dimethyl-4-(7-(2,2,4,4,4-pentafluorobutoxy)-1,3,4,5-tetrahydro-2H-benzo[c]azepin-2-yl)phenyl)-3,3-dimethylbutanamide], the activation at 3 µM in data set [2] (test concentration 3 μM) is > 100%.

Consider `Cc1cc(N2CCCc3cc(OCCCCF)ccc3C2)cc(C)c1NC(=O)CC(C)(C)C` [Compound 063, N-(4-(7-(4-fluorobutoxy)-1,3,4,5-tetrahydro-2H-benzo[c]azepin-2-yl)-2,6-dimethylphenyl)-3,3-dimethylbutanamide], for which the activation at 3 µM in data set [2] (test concentration 3 μM) was > 100%.

As for `Cc1cc(N2CCc3cc(F)ccc3C2)cc(C)c1NC(=O)CC(C)(C)C` [Xen-1101, reference compound], the “Concentrations in the brain” value in data set [3] is 90.9 ng/g. For the same compound, the figures for the “V1/2 Shift (mV)” value at KCNQ2/3 (test concentration 50 nM) and on KCNQ2/3 (test concentration 300 nM) were −5.48 mV and −13.33 mV, respectively.

Consider `Cc1cc(N2CCCc3cc(F)ccc3C2)cc(C)c1NC(=O)CC(C)(C)C` [a, reference compound], for which, in data set [2] (test concentration 3 μM, numeric value), the “Enhancment % (activation activity on KCNQ2/3 potassium ion channel)” value was 41.39%.
